# Patent publication US20240398759A1, “INHIBITING SEROTONIN TRANSPORTER PROTEIN (5-HTT)” (priority 2022, published 2024)
# Legend:
# PDE4A1A = PDE4A1A (Homo sapiens (Human), UniProt P27815); test: PDE4 inhibition assay (fluorescence polarization), PDE4A1A; type: biochemical
# Procedure: (§1) 100 μM dilutions of the test compounds were prepared in assay buffer (10% DMSO concentration) and 5 μl of the dilution was added to a 50 μl reaction so that the final concentration of DMSO is 1% in all of reactions. The enzymatic reactions were conducted at room temperature for 60 minutes in a 50 μl mixture containing PDE assay buffer, 100 nM FAM-cAMP, a PDE enzyme (Table 2.3.1) and the test compound (Section 2.2). After the enzymatic reaction, 100 μl of a binding solution (1:100 dilution of the binding agent with the binding agent diluent) was added to each reaction and the reaction was performed at room temperature for 60 minutes. Fluorescence intensity was measured at an excitation of 485 nm and an emission of 528 nm using a Tecan Infinite M1000 microplate reader.
# (§2) • 1) Dilute 20 μM FAM-Cyclic-3′, 5′-AMP stock 100-fold with PDE buffer to make a 200 nM solution. • 2) Add 25 μl of FAM-Cyclic-3′,5′-AMP (200 nM) to each well designated “Positive Control”, “Test Inhibitor”, and “Substrate Control”. • 3) Add 20 μl of PDE assay buffer to each well designated “Substrate Control” and 45 μl of PDE assay buffer to each well designated “Blank”. • 4) Add 5 μl of inhibitor solution to each well designated “Test Inhibitor”. For the wells labeled “Positive Control”, “Substrate Control” and “Blank”, add 5 μl of the same solution without inhibitor (inhibitor buffer). • 5) Thaw PDE on ice. Upon first thaw, briefly spin tube containing enzyme to recover the full contents of the tube. • 6) Dilute PDE4 in PDE buffer to 7.5 pg/μl (0.15 ng/reaction)*. Initiate reaction by adding 20 µl of PDE4 (7.5 pg/μl) to the wells designated “Positive Control” and “Test Inhibitor.” • 7) Incubate at room temperature for 1 hour.
# (§3) • 1) Mix binding agent thoroughly and dilute binding agent 1:100 with binding agent diluent. • 2) Add 100 μl diluted binding agent to each microwell. Incubate at room temperature for 1 hour with slow shaking. • 3) Read the fluorescent polarization of the sample in a microtiter-plate reader equipped for the measurement of fluorescence polarization, capable of excitation at wavelengths ranging from 485±5 nm and detection of emitted light ranging from 528±10 nm. Blank value is subtracted from all other values. • 4) Data Analysis: PDE activity assays were performed in duplicate at each concentration. Fluorescence intensity is converted to fluorescence polarization using the Tecan Magellan6 software. The fluorescence polarization data were analyzed using the computer software, Graphpad Prism. The fluorescence polarization (FPt) in absence of the compound in each data set was defined as 100% activity. In the absence of PDE and the compound, the value of fluorescent polarization (FPb) in each data set was defined as 0% activity. The percent activity in the presence of the compound was calculated according to the following equation: % activity=(FP−FPb)/(FPt−FPb)×100%, where FP=the fluorescence polarization in the presence of the compound. The values of % activity versus a series of compound concentrations were then plotted using non-linear regression analysis of sigmoidal dose-response curve generated with the equation Y=B+(T−B)/1+10^(LogEC50−X)×Hill Slope), where Y=percent activity, B=minimum percent activity, T=maximum percent activity, X=logarithm of compound and Hill Slope=slope factor or Hill coefficient. The IC50 value was determined by the concentration causing a half-maximal percent activity.
# PDE4B2 = PDE4B2 (Homo sapiens (Human), UniProt Q07343); test: PDE4 inhibition assay (fluorescence polarization), PDE4B2; type: biochemical
# Sequence of PDE4B2 (Q07343 other isoform, or with tags, fused parts or gaps): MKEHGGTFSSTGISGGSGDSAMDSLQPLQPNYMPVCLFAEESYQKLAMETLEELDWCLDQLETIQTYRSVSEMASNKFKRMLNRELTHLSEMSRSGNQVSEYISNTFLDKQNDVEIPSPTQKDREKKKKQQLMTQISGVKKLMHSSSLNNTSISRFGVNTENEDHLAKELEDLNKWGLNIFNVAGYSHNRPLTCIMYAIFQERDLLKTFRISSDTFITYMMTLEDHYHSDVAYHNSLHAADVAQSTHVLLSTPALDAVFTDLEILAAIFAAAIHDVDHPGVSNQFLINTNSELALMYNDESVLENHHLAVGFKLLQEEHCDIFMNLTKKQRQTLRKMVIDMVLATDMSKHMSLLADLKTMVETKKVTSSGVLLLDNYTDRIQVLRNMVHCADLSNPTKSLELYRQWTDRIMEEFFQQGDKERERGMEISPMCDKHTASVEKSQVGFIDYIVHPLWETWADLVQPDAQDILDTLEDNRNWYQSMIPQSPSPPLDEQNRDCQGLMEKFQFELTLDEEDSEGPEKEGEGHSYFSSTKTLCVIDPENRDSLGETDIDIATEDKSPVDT
# Procedure: as §1, §2, §3
# PDE4C1 = PDE4C1 (Homo sapiens (Human), UniProt Q08493); test: PDE4 inhibition assay (fluorescence polarization), PDE4C1; type: biochemical
# Sequence of PDE4C1 (Q08493 whole entry): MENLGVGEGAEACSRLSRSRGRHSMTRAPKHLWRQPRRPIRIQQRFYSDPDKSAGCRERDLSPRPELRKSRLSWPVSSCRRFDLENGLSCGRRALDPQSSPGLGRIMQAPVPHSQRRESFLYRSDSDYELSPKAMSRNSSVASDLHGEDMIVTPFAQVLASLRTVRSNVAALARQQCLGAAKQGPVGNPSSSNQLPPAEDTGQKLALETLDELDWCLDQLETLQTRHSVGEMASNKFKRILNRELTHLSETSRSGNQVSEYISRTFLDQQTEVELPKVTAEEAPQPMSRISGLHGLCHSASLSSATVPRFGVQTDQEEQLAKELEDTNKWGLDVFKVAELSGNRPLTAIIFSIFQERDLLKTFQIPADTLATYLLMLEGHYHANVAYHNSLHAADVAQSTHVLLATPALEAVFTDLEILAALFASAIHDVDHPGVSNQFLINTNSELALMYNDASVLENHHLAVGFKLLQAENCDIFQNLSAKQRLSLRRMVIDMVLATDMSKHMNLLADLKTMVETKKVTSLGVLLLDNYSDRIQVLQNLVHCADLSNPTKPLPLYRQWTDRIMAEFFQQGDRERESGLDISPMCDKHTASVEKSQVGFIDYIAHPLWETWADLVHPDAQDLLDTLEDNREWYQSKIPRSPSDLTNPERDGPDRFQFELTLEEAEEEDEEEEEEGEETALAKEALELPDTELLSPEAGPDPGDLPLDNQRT
# Procedure: as §1, §2, §3
# PDE4D2 = PDE4D2 (Homo sapiens (Human), UniProt Q08499); test: PDE4 inhibition assay (fluorescence polarization), PDE4D2; type: biochemical
# Sequence of PDE4D2 (Q08499 303-809): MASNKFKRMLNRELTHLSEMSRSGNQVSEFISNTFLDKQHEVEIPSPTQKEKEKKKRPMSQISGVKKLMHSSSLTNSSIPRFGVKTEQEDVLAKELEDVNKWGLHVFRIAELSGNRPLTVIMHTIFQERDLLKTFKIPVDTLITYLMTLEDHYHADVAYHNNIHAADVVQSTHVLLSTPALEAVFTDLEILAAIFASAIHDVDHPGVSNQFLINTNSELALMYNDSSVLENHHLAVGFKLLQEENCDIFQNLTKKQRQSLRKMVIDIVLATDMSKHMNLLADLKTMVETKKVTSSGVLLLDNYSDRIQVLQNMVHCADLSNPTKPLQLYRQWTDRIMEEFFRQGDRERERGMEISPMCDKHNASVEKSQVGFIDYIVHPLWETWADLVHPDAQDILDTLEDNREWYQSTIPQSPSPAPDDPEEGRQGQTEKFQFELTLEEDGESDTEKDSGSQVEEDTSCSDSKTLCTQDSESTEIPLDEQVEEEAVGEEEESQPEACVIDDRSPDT
# Procedure: as §1, §2, §3
# 5-HT transporter (SERT) = 5-HT transporter (SERT) (Homo sapiens (Human), UniProt P31645); details: cited from earlier work
# [1] = Pharmacokinetic profile in dogs (IV and PO); details: dog, mean n=3
# Description: HPLC Instrument: Shimsadzu (DGU-20A5R, Serial No: L20705621435 IX; LC-30AD Serial No: L20555611905 AE and L20555611816 AE; SIL-L30AC, Serial No: L20565605499 AE; Rack Changer II Serial No. L20585601125 SS; CTO20A: Serial No. L20205620413 CD; CBM-20A: Serial No. L20235636200 CD) • MS: AB API 5500 LC/MS/MS instrument (Serial No. EF221221812) • Column: Phenomenex Synergi 2.5 μm Polar-RP 100A. (50×3 mm) • Mobile Phase: (A) 5% Acetonitrile in Water (0.1% Formic acid); (B) 95% Acetonitrile in Water (0.1% Formic acid) • Samples: 50 μL of plasma sample+5 μL of blank solution+200 μL of acetonitrile for PPE (protein precipitation extraction).
# The desired serial concentrations of working solutions were achieved by diluting stock solution of analyte with 50% acetonitrile in water solution. 5 μL of working solutions (5, 10, 20, 50, 100, 500, 1000, 5000, 10000 ng/mL) were added to 50 μL of the blank Beagle Dog plasma to achieve calibration standards of 0.5˜1000 ng/mL (0.5, 1, 2, 5, 10, 50, 100, 500, 1000 ng/mL) in a total volume of 55 μL. Five quality control samples at 1 ng/mL, 2 ng/mL, 5 ng/mL, 50 ng/mL and 800 ng/mL for plasma were prepared independently of those used for the calibration curves. These QC samples were prepared on the day of analysis in the same way as calibration standards.
# 55 μL standards, 55 μL QC samples and 55 μL unknown samples 50 μL plasma with 5 μL blank solution) were added to 200 μL of acetonitrile containing IS mixture for precipitating protein respectively. Then the samples were vortexed for 30 s. After centrifugation at 4 degree Celsius, 3900 rpm for 15 min, the supernatant was diluted 3 times with water.
# [2] = Hepatocyte metabolism (stability in cryopreserved hepatocytes); details: human hepatocytes
# Procedure: A 2.5 uL aliquot of 100 μM test compound was incubated with 247.5 uL of cryopreserved hepatocytes suspended in serum-free incubation medium at 1 million viable cells/mL. The mixture was incubated at 37° C. and shaken at 500 rpm for the designated time points (0.5, 5, 10, 15, 30, 60, 90, or 120 min). At each time point, 25 uL aliquot of incubation mixture was transferred to 125 uL of cold acetonitrile containing internal standard, followed by centrifugation for 30 min at 3,220 g. 100 uL of supernatant was mixed with 100 uL of distilled water for analysis by LC-MS/MS. Peak area ratios were determined from extracted ion chromatograms and percent recovery was calculated.
# Sequence of PDE4A1A (P27815 other isoform, or with tags, fused parts or gaps): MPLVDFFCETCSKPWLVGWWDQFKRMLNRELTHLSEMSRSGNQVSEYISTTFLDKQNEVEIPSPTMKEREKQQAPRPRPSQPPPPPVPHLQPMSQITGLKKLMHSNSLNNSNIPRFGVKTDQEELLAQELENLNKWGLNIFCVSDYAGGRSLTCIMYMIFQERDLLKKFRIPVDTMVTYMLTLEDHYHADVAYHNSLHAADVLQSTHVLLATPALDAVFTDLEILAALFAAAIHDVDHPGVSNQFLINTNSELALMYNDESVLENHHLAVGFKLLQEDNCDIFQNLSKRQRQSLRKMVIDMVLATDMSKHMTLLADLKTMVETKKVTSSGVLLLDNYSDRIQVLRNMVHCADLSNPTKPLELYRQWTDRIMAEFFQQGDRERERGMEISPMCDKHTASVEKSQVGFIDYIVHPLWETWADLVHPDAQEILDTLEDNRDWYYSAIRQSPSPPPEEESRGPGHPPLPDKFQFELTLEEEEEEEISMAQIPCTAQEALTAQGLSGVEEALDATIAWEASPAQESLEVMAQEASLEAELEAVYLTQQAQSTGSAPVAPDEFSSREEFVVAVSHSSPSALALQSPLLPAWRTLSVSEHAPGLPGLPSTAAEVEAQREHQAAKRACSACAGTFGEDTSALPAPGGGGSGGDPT
compound,measurement,setting,value
"COc1ccc(C23C=CC(O)CC2N(C)CC3)cc1OC [Compound 024, (S, S, R) Mesembrenol]",PDE4A1A % INH @ 10 μM,PDE4A1A,45%
same,PDE4B2 % INH @ 10 μM,PDE4B2,55%
same,PDE4C1 % INH @ 10 μM,PDE4C1,18%
same,PDE4D2 %INH @ 10 μM,PDE4D2,53%
COc1ccc(C23C=CC(O)CC2N(C)CC3)cc1OC (stereo not shown) [Mesembrenol],Ki,"5-HT transporter (SERT); binding to the 5-HT transporter, isolated alkaloids",0.062 µM
same,nH,"5-HT transporter (SERT); concentration response curves, 5-HT transporter",1.1
(+) Mesembrine [Compound 002],PDE4A1A % INH @ 10 μM,PDE4A1A,56%
same,PDE4C1 % INH @ 10 μM,PDE4C1,26%
same,PDE4D2 %INH @ 10 μM,PDE4D2,54%
(−) Mesembrine [Compound 001],IC50,PDE4A1A,4.3 µM
same,IC50,PDE4C1,15 µM
same,IC50,PDE4D2,2.7 µM
same,AUCInf,[1]; IV 2 mg/kg,809 ng·h/mL
same,AUC_% Extrap_obs,[1]; IV 2 mg/kg,0.53%
same,AUClast,[1]; IV 2 mg/kg,805 ng·h/mL
same,AUClast/D,[1]; IV 2 mg/kg,402
same,C0,[1]; IV 2 mg/kg,1226 ng/mL
same,Cl_obs,[1]; IV 2 mg/kg,44.07 mL/min/kg
same,MRTInf_obs,[1]; IV 2 mg/kg,1.41 h
same,T1/2,[1]; IV 2 mg/kg,1.65 h
same,AUCInf,[1]; PO 10 mg/kg,3113.0 ng·h/mL
same,AUC_% Extrap_obs,[1]; PO 10 mg/kg,0.25%
same,AUClast,[1]; PO 10 mg/kg,3106.9 ng·h/mL
same,AUClast/D,[1]; PO 10 mg/kg,310.7
same,Cmax,[1]; PO 10 mg/kg,1878.0 ng/mL
same,F,[1]; PO 10 mg/kg,76.9%
same,MRTInf_obs,[1]; PO 10 mg/kg,1.81 h
same,T1/2,[1]; PO 10 mg/kg,2.99 h
same,Tmax,[1]; PO 10 mg/kg,0.28 h
same,% QH,[2],86%
same,CLHB,[2],18 mL/min/kg
same,Hepatocyte Clint,[2],55 μL/min/10^6 cells
same,t1/2,[2],0.217 h
same,CLint,[2]; scaled,131 mL/min/kg
